Measurements: PubChem BioAssay AID743425 (Vanderbilt Specialized Chemistry Center, 2014)
Activity calls are given as the source filed them. The rule behind the calls is not given here.

What follows are molecules tested against Metabotropic glutamate receptor 8 (Homo sapiens) (UniProt O00222) (assay: potentiation of glutamate EC20 at mGlu8 – rat receptor, calcium, dose response (AID 743425)). Conditions: rat mGlu8, Fluo-4 calcium.
Sequence of Metabotropic glutamate receptor 8 (Homo sapiens) (O00222 whole entry, looked up): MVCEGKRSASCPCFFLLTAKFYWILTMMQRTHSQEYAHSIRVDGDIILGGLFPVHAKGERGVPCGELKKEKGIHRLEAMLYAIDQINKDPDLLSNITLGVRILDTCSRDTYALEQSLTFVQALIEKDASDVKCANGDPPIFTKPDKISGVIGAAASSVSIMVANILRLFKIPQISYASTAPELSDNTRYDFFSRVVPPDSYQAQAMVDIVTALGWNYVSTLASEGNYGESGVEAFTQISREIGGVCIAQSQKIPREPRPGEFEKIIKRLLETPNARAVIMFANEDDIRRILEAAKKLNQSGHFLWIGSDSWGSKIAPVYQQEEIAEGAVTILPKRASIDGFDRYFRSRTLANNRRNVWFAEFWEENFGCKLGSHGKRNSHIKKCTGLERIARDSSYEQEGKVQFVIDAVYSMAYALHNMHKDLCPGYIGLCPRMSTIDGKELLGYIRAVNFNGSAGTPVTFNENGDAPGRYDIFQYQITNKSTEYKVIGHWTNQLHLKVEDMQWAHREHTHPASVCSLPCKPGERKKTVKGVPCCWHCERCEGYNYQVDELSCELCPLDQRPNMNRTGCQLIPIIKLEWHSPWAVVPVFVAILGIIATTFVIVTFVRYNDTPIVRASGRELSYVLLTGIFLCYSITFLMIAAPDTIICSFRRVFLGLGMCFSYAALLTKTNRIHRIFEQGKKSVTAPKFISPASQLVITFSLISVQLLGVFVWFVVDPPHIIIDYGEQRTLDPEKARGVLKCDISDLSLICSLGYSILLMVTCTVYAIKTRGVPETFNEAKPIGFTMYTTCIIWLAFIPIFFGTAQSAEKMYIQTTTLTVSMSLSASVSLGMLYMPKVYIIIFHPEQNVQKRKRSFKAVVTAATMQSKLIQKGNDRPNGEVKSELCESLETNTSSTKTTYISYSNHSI

| EC50 | Compound |
| --- | --- |
| 3.3 µM | COC(=O)c1ccc(-n2c(C)cc(C(=O)CSc3ccc(N(C)C(C)=O)cc3)c2C)cc1 |
| 3.16 µM | Cc1ccc(CSCC(=O)c2cc(C)n(-c3ccc(OC(F)F)cc3)c2C)cc1 |
| 3.16 µM | CCOc1ccc(-n2c(C)cc(C(=O)CSCc3cccc(C)c3)c2C)cc1 |
| 3.16 µM | CC(=O)Nc1ccc(SCC(=O)c2cc(C)n(-c3ccccc3F)c2C)cc1 |
| 10 µM | CC(=O)Nc1ccc(SCC(=O)c2cc(C)n(-c3nc(C)cs3)c2C)cc1 |
| 1.5 µM | CC(=O)Nc1ccc(SCC(=O)c2cc(C)n(-c3cccc(F)c3)c2C)cc1 |
| 3.44 µM | CC(=O)Nc1ccc(SCC(=O)c2cc(C)n(CC3CCCO3)c2C)cc1 (stereo not drawn) |
| 3.16 µM | CC(=O)Nc1ccc(SCC(=O)c2cc(C)n(-c3ccc(S(N)(=O)=O)cc3)c2C)cc1 |
| 3.16 µM | CCOc1ccc(-n2c(C)cc(C(=O)CSCc3ccc(OC)cc3)c2C)cc1 |
| 3.16 µM | CCOc1ccc(-n2c(C)cc(C(=O)CSc3ccc(OC)cc3)c2C)cc1 |
| 0.23 µM | COc1ccc(CSCC(=O)c2cc(C)n(-c3ccc(OC(F)F)cc3)c2C)cc1 |
| 3.16 µM | COC(=O)c1ccc(-n2c(C)cc(C(=O)CSCc3cccc(C)c3)c2C)cc1 |
| 10 µM | COC(=O)c1ccc(-n2c(C)cc(C(=O)COc3ccc(OC(C)=O)cc3)c2C)cc1 |
| 3.4 µM | COC(=O)c1ccc(-n2c(C)cc(C(=O)COc3ccc(NC(C)=O)cc3)c2C)cc1 |
| 0.93 µM | COC(=O)c1ccc(-n2c(C)cc(C(=O)CSc3ccc(NC(C)=O)cc3)c2C)cc1 |
| 1.6 µM | CC(=O)Nc1ccc(SCC(=O)c2cc(C)n(CCc3cccs3)c2C)cc1 |
| 10 µM | CCn1c(C)cc(C(=O)CSc2ccc(NC(C)=O)cc2)c1C |
| 1.14 µM | CC(=O)Nc1ccc(SCC(=O)c2cc(C)n(CC3COc4ccccc4O3)c2C)cc1 (stereo not drawn) |
| 3.5 µM | CC(=O)Nc1ccc(OCC(=O)c2cc(C)n(-c3ccc(OC(F)F)cc3)c2C)cc1 |
| 1.6 µM | COC(=O)c1ccc(-n2c(C)cc(C(=O)CSCc3ccc(OC)cc3)c2C)cc1 |
| 3.16 µM | COc1ccc(SCC(=O)c2cc(C)n(-c3ccc(OC(F)F)cc3)c2C)cc1 |

These molecules were tested against Metabotropic glutamate receptor 8 (Rattus norvegicus) (UniProt P70579) in the same assay as above. Conditions: rat mGlu8, Fluo-4 calcium, stronger effect = higher value.
Sequence of Metabotropic glutamate receptor 8 (Rattus norvegicus) (P70579 whole entry, looked up): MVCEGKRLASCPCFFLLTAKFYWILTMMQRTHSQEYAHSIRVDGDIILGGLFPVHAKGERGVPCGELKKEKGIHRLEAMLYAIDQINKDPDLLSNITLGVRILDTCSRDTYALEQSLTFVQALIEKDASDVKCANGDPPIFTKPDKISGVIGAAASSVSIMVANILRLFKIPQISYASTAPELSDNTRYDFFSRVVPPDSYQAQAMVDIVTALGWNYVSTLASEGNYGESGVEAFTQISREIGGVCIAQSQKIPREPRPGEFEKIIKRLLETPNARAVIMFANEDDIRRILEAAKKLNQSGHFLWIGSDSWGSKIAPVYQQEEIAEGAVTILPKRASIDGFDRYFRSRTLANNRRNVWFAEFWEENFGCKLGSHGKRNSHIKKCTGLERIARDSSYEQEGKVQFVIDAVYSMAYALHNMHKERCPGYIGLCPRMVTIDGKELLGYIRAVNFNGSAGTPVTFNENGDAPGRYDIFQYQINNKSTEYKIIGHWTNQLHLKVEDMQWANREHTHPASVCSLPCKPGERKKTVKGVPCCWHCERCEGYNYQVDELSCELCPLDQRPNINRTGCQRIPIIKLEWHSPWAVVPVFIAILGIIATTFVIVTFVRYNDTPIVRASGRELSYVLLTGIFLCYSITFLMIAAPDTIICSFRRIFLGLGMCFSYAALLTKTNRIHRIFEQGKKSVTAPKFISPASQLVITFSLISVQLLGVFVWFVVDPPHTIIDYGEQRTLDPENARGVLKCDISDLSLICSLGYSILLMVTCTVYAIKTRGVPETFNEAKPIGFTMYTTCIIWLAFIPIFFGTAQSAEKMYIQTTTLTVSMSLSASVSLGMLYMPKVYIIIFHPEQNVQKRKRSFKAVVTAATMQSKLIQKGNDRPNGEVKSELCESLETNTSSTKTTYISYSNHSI

| % glutamate max | Compound |
| --- | --- |
| inactive | COC(=O)c1ccc(-n2c(C)cc(C(=O)COc3cccc(N(C)C)c3)c2C)cc1 |
| inactive | COC(=O)c1ccc(-n2c(C)cc(C(=O)CNc3ccc(C(=O)O)cc3)c2C)cc1 |
